For the experiment, the target named is GABAa receptor. Kind of experiment: GABAa receptor binding assay (displacement of 3H-RO15-1788 [3H-Flumazenil], rat cortical tissue). To be noted: nonspecific binding with diazepam. The procedure:
The pharmaceutical utility of compounds of this invention are indicated by the following assay for GABAa receptor binding activity.
Assays are carried out as described in Thomas and Tallman (J. Bio. Chem. 156: 9838-9842 J. Neurosci. 3: 433-440, 1983). Rat cortical tissue is dissected and homogenized in 25 volumes (w/v) of 0.05M Tris HCl buffer (pH 7.4 at 4° C.). The tissue homogenate is centrifuged in the cold (4°) at 20,000×g for 20'. The supernatant is decanted and the pellet is rehomogenized in the same volume of buffer and again centrifuged at 20,000×g. The supernatant is decanted and the pellet is frozen at -20° C. overnight. The pellet is then thawed and rehomogenized in 25 volume (original wt/vol) of buffer and the procedure is carried out twice. The pellet is finally resuspended in 50 volumes (w/vol of 0.05M Tris HCl buffer (pH 7.4 at […]).
Incubations contain […] of tissue homogenate, […] of radioligand 0.5 nM (^3 H-RO15-1788 [^3 H-Flumazenil] specific activity 80 Ci/mmol), drug or blocker and buffer to a total volume of […]. Incubations are carried for 30 min at 4° C. then are rapidly filtered through GFB filters to separate free and bound ligand. Filters are washed twice with fresh 0.05M Tris HCl buffer (pH 7.4 at 4° C.) and counted in a liquid scintillation counter. 1.0 mM diazepam is added to some tubes to determine nonspecific binding. Data are collected in triplicate determinations, averaged and % inhibition of total specific binding is calculated. Total Specific Binding=Total-Nonspecific. In some cases, the amounts of unlabeled drugs is varied and total displacement curves of binding are carried out. Data are converted to Ki values.
Background: Displacement assays read how much labelled ligand stays bound in the presence of the test substance.

Setting [1] is: Table 3, 0.5 nM 3H-RO15-1788, 30 min at 4° C.
The mark [2] stands for this setting: Table 2, 0.5 nM 3H-RO15-1788, 30 min at 4° C.

Each structure is given as a SMILES string.

Regarding `O=C(Nc1ccccc1F)c1c[nH]c2c1C(=O)CCCC2` [Compound 93, N-(2-Fluorophenyl)-4-oxo-1,4,5,6,7,8-hexahydro-cyclohepta[b]pyrrole-3-carboxamide], under setting [1], the Ki (commonly a dissociation constant, usually derived from enzyme kinetics or from competition with a known ligand) turned out to be 6 nM.

On to `CC(=O)Nc1ccc(NC(=O)c2c[nH]c3c2C(=O)CCC3)cc1` [Compound 12, N-(4-Acetamidophenyl)-4-oxo-4,5,6,7-tetrahydro-1H-indole-3-carboxamide], for which the affinity under setting [2] corresponds to a Ki of 28 nM.

Compound `O=C(Nc1ccccc1O)c1c[nH]c2c1C(=O)CCC2` [Compound 62, N-(2-Hydroxyphenyl)-4-oxo-4,5,6,7-tetrahydro-1H-indole-3-carboxamide] came in with a Ki under setting [1] of 0.8 nM.

`COc1cccc(NC(=O)c2c[nH]c3c2C(=O)CCCC3)c1` [Compound 96, N-(3-Methoxyphenyl)-4-oxo-1,4,5,6,7,8-hexahydro-cyclohepta[b]pyrrole-3-carboxamide]: affinity under setting [1] was put at a Ki of 29 nM.

`COc1ccc(NC(=O)c2c[nH]c3c2C(=O)CCC3)cc1` [Compound 1, N-(4-methoxyphenyl)-4-oxo-4,5,6,7-tetrahydro-1H-indole-3-carboxamide] yielded a Ki under setting [2] of 4 nM.

Under setting [1], `CC1(C)CCc2[nH]cc(C(=O)Nc3ccc(O)cc3)c2C1=O` [Compound 86, N-(4-Hydroxyphenyl)-4-oxo-5,5-dimethyl-4,5,6,7-tetrahydro-1H-indole-3-carboxamide] registered a Ki of 2 nM.

`CC(C)Oc1ccc(NC(=O)c2c[nH]c3c2C(=O)CCC3)cc1` [Compound 22, N-(4-Isopropoxyphenyl)-4-oxo-4,5,6,7-tetrahydro-1H-indole-3-carboxamide] returned a Ki under setting [1] of 53 nM.

`COc1ccc(NC(=O)c2c[nH]c3cccc(O)c23)c(F)c1` [Compound 2, N-(2-fluoro-4-methoxyphenyl)-4-hydroxy-1H-indole-3-carboxamide]: under setting [2], the affinity corresponds to a Ki of 430 nM.

As to `COc1ccc(NC(=O)c2c[nH]c3cccc(OC)c23)cc1` [Compound 8, N-(4-Methoxyphenyl)-4-methoxy-1H-indole-3-carboxamide], affinity under setting [2] was put at a Ki of 25 nM.

Turning to `COc1ccc(NC(=O)c2c[nH]c3c2C(=O)CCC3)c(F)c1` [Compound 6, N-(2-Fluoro-4-methoxyphenyl)-4-oxo-4,5,6,7-tetrahydro-1H-indole-3-carboxamide], the Ki under setting [2] worked out at 1 nM.

Compound `CC1(C)CCc2[nH]cc(C(=O)Nc3ccccc3F)c2C1=O` [Compound 81, N-(2-Fluorophenyl)-4-oxo-5,5-dimethyl-4,5,6,7-tetrahydro-1H-indole-3-carboxamide] registered a Ki under setting [1] of 14 nM.

`CC1(C)CCc2[nH]cc(C(=O)Nc3ccccc3)c2C1=O` [Compound 80, N-Phenyl-4-oxo-5,5-dimethyl-4,5,6,7-tetrahydro-1H-indole-3-carboxamide] displayed a Ki under setting [1] of 31 nM.

Under setting [1], `COc1ccc(NC(=O)c2c[nH]c3c2C(=O)C(C)(C)CC3)c(F)c1` [Compound 30, N-(2-Fluoro-4-methoxyphenyl)-4-oxo-5,5-dimethyl-4,5,6,7-tetrahydro-1H-indole-3-carboxamide] displayed a Ki of 10 nM.

`COc1ccc(NC(=O)c2c[nH]c3cccc(OCc4ccccc4)c23)c(F)c1` [Compound 14, N-(2-Fluoro-4-methoxyphenyl)-4-benzyloxy-1H-indole-3-carboxamide] showed a Ki under setting [2] of 133 nM.

Compound `Cc1ccc(NC(=O)c2c[nH]c3c2C(=O)CCC3)c(F)c1` [Compound 72, N-(2-Fluoro-4-methylphenyl)-4-oxo-4,5,6,7-tetrahydro-1H-indole-3-carboxamide] returned a Ki under setting [1] of 26 nM.

Under setting [1], `O=C(Nc1ccccc1F)c1c[nH]c2c1C(=O)CCC2` [Compound 46, N-(2-Fluorophenyl)-4-oxo-4,5,6,7-tetrahydro-1H-indole-3-carboxamide] showed a Ki of 3 nM.

For `O=C(Nc1ccccc1)c1c[nH]c2c1C(=O)CCC2` [Compound 35, N-Phenyl-4-oxo-4,5,6,7-tetrahydro-1H-indole-3-carboxamide], the affinity under setting [1], expressed as Ki, was 2 nM.

For `COc1ccc(NC(=O)c2c[nH]c3c2C(=O)CCC3)cc1F` [Compound 26, N-(3-Fluoro-4-methoxyphenyl)-4-oxo-4,5,6,7-tetrahydro-1H-indole-3-carboxamide], the Ki under setting [1] was 3 nM.

Consider `CNc1ccc(NC(=O)c2c[nH]c3c2C(=O)CCC3)cc1` [Compound 74, N-[4-(Methylamino)phenyl]-4-oxo-4,5,6,7-tetrahydro-1H-indole-3-carboxamide], for which the Ki under setting [1] was found to be 18 nM.

For the compound `CCOc1ccc(NC(=O)c2c[nH]c3c2C(=O)CCCC3)c(F)c1` [Compound 102, N-(2-Fluoro-4-ethoxyphenyl)-4-oxo-1,4,5,6,7,8-hexahydro-cyclohepta[b]pyrrole-3-carboxamide], the Ki under setting [1] stood at 37 nM.

The values are drawn from US5750702A (priority 1996, dated 1998).
